Assay results from patent US8426408B2, “Pyrimidine inhibitors of kinases” (AbbVie Inc., priority 2009, dated 2013).

Legend:
Aurora B = target: T1, Aurora B (Homo sapiens, UniProt Q96GD4); experiment: Aurora B enzyme inhibition (time-resolved fluorescence, histone H3 peptide); type: biochemical; conditions: 1 mM ATP
T1 construct: Active Aurora B enzyme (recombinant residues 1-344)
How it was run: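 IC50s came from an exponential fit of inhibition against inhibitor concentration, with phosphorylation read as the 665/615 nm time-resolved fluorescence ratio after EDTA stop using Eu-anti-phospho-H3 and SA-APC. The 1 h reaction used Aurora B 1-344 plus GST-INCENP, biotin-histone H3 1-21 peptide and 1 mM ATP in pH 7.4 HEPES buffer.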

KDR [1] = target: T2, KDR (Homo sapiens, UniProt P35968); experiment: KDR HTRF in vitro kinase assay; type: biochemical; set-up: purified enzyme (His6-KDR 789-1354, MW 63 kD); His6 (N); conditions: 1 mM ATP; read-out: KDR enzyme inhibition data (Ki)
How it was run: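 His6-KDR 789-1354 (7 ng/well) with 0.5 μM biotinylated peptide substrate and 1 mM ATP in HEPES pH 7.1, MgCl2/MnCl2, 60 min at room temperature. EDTA-quenched, detected by streptavidin-XL-665 plus Eu-kryptate anti-phosphotyrosine HTRF after 3 h; IC50 from 620/665 nm ratio.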
Target sequence in this assay (P35968 789-1354): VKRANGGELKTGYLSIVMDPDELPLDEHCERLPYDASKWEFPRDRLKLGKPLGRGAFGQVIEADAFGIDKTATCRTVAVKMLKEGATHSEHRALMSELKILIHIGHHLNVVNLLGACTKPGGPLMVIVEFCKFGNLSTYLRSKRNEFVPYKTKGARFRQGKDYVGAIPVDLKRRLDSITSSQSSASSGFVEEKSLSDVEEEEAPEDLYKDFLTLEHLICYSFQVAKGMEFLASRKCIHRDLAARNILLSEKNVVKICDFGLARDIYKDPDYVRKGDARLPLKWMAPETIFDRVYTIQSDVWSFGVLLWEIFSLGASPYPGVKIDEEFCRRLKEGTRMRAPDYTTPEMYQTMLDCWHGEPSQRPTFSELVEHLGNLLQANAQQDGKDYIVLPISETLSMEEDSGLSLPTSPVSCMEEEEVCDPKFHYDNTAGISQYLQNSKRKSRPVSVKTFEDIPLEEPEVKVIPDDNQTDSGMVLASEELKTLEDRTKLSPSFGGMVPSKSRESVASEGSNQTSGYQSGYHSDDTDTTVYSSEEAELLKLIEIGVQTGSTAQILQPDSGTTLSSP

KDR [2] = target: T2, KDR; experiment: KDR cellular assay (KDR receptor phosphorylation ELISA); type: cell-based; set-up: expressed in transfected cells; host or cells: 3T3 (embryonic mouse) cells; conditions: KDR transfected 3T3 (embryonic mouse) cells, VEGF stimulated; read-out: IC50 inhibition of KDR phosphorylation
How it was run: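 Phospho-KDR measured by capture ELISA (anti-KDR coat, biotinylated detection, streptavidin-HRP, 450 nm) in lysates of KDR-expressing 3T3 mouse fibroblasts. Cells saw compound 20 min at 37° C before 10 min VEGF challenge (100 ng/ml solution); IC50 from non-linear regression of half-log dose series.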
Target sequence in this assay (P35968 20-1356): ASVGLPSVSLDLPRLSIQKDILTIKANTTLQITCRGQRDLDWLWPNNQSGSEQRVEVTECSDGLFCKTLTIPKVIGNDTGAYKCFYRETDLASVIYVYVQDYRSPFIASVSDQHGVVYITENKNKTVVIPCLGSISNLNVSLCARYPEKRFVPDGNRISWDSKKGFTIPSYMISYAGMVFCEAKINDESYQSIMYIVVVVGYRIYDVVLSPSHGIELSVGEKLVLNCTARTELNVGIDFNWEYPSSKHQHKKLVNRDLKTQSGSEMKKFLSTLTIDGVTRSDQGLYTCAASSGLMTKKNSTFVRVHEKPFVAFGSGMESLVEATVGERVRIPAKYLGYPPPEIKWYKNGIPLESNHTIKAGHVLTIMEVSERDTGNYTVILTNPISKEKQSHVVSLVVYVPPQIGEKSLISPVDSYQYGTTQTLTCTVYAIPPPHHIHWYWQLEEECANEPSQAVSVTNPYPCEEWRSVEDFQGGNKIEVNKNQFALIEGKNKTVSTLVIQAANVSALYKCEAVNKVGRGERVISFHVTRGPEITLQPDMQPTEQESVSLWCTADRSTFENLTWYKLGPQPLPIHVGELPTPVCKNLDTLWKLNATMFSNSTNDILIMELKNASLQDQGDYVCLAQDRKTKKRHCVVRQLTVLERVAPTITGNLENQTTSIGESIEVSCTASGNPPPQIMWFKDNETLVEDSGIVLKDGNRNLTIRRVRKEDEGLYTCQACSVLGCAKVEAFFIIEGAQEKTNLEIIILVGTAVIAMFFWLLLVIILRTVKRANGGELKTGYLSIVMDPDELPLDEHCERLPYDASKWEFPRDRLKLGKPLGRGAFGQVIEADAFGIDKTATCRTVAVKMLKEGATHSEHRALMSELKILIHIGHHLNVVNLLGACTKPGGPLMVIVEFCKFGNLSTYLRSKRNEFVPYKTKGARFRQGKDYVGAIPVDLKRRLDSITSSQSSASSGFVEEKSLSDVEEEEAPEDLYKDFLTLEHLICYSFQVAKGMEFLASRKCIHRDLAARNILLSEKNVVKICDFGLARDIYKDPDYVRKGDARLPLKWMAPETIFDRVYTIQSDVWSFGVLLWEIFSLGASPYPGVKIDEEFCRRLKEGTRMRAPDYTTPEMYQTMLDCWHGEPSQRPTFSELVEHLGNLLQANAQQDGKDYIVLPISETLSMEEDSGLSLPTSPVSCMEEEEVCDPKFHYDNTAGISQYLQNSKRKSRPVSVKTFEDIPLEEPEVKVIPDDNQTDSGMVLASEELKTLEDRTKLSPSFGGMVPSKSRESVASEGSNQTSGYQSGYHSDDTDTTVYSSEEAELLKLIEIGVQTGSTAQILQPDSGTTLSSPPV

T1 sequence (Q96GD4 whole entry, the tested form may be a part): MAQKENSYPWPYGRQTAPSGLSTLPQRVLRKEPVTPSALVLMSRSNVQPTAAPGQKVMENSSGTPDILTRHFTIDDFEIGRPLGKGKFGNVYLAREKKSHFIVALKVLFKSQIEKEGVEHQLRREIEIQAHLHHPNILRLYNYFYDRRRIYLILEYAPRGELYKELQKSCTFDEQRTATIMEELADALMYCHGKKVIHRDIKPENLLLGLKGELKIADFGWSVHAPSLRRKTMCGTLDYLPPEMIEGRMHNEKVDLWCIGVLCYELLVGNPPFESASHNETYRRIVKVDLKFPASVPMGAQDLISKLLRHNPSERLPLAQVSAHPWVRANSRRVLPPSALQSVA
T1 sequence (Q9NQS7 826-918 partner limits assumed): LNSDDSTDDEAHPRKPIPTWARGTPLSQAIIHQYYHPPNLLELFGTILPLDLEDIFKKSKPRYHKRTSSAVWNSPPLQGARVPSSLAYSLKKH

Structure (SMILES) | Ki (Aurora B) | Ki (KDR [1]) | IC50 (KDR [2])
Cc1cccc(Cn2cc(Nc3ncc(Cl)c(N[C@H]4[C@@H](C(N)=O)[C@@H]5C=C[C@H]4C5)n3)cn2)c1 [Example 178, (1S,2S,3R,4R)-3-[(5-chloro-2-{[1-(3-methylbenzyl)-1H-pyrazol-4-yl]amino}pyrimidin-4-yl)amino]bicyclo[2.2.1]hept-5-ene-2-carboxamide] | < 100 nM | < 100 nM | < 100 nM
NC(=O)[C@@H]1[C@H](Nc2nc(Nc3cnn([C@H]4CCOC4)c3)ncc2Cl)[C@H]2C=C[C@@H]1C2 [Example 108, (1S,2S,3R,4R)-3-{[5-chloro-2-({1-[(3S)-tetrahydrofuran-3-yl]-1H-pyrazol-4-yl}amino)pyrimidin-4-yl]amino}bicyclo[2.2.1]hept-5-ene-2-carboxamide] | < 100 nM | < 100 nM | < 100 nM
COc1ccc(Cn2cc(Nc3ncc(Cl)c(N[C@H]4[C@@H](C(N)=O)[C@@H]5C=C[C@H]4C5)n3)cn2)cc1F [Example 192, (1S,2S,3R,4R)-3-[(5-chloro-2-{[1-(3-fluoro-4-methoxybenzyl)-1H-pyrazol-4-yl]amino}pyrimidin-4-yl)amino]bicyclo[2.2.1]hept-5-ene-2-carboxamide] | < 100 nM | < 100 nM | < 100 nM
CCn1cc(Nc2ncc(Br)c(N[C@@H]3[C@H](C(N)=O)[C@H]4C=C[C@@H]3C4)n2)cn1.CCn1cc(Nc2ncc(Br)c(N[C@H]3[C@@H](C(N)=O)[C@@H]4C=C[C@H]3C4)n2)cn1 (mixture of isomers) [Example 31, (1S,2S,3R,4R)-3-({5-bromo-2-[(1-ethyl-1H-pyrazol-4-yl)amino]pyrimidin-4-yl}amino)bicyclo[2.2.1]hept-5-ene-2-carboxamide and (1R,2R,3S,4S)-3-({5-bromo-2-[(1-ethyl-1H-pyrazol-4-yl)amino]pyrimidin-4-yl}amino)bicyclo[2.2.1]hept-5-ene-2-carboxamide] | < 100 nM | < 100 nM | < 100 nM
COc1cccc(Cn2cc(Nc3ncc(Br)c(N[C@H]4[C@@H](C(N)=O)[C@@H]5C=C[C@H]4C5)n3)cn2)c1 [Example 159, (1S,2S,3R,4R)-3-[(5-bromo-2-{[1-(3-methoxybenzyl)-1H-pyrazol-4-yl]amino}pyrimidin-4-yl)amino]bicyclo[2.2.1]hept-5-ene-2-carboxamide] | < 100 nM | < 100 nM | < 100 nM
CC(C)CCn1cc(Nc2ncc(Cl)c(N[C@H]3[C@@H](C(N)=O)[C@@H]4C=C[C@H]3C4)n2)cn1 [Example 99, (1S,2S,3R,4R)-3-[(5-chloro-2-[1-(3-methylbutyl)-1H-pyrazol-4-yl]aminopyrimidin-4-yl)amino]bicyclo[2.2.1]hept-5-ene-2-carboxamide] | < 100 nM | < 100 nM | < 100 nM
Cn1cc(Nc2ncc(Cl)c(N[C@@H]3CC[C@@H]3C(N)=O)n2)cn1.Cn1cc(Nc2ncc(Cl)c(N[C@H]3CC[C@H]3C(N)=O)n2)cn1 (mixture of isomers) [Example 151, (1S,2R)-2-({5-chloro-2-[(1-methyl-1H-pyrazol-4-yl)amino]pyrimidin-4-yl}amino)cyclobutanecarboxamide and (1R,2S)-2-({5-chloro-2-[(1-methyl-1H-pyrazol-4-yl)amino]pyrimidin-4-yl}amino)cyclobutanecarboxamide] | < 100 nM | < 100 nM | 100 to 1000 nM
CC(O)Cn1cc(Nc2ncc(C(F)(F)F)c(NC3C4C=CC(C4)C3C(N)=O)n2)cn1 (mixture of isomers) [Example 19, (1R,2R,3S,4S)-3-{[2-({1-[(2R)-2-hydroxypropyl]-1H-pyrazol-4-yl}amino)-5-(trifluoromethyl)pyrimidin-4-yl]amino}bicyclo[2.2.1]hept-5-ene-2-carboxamide and (1S,2S,3R,4R)-3-{[2-({1-[(2R)-2-hydroxypropyl]-1H-pyrazol-4-yl}amino)-5-(trifluoromethyl)pyrimidin-4-yl]amino}bicyclo[2.2.1]hept-5-ene-2-carboxamide] | < 100 nM | < 100 nM | < 100 nM
Cn1cc(Nc2ncc(Br)c(Nc3ccccc3C3(O)CCC3)n2)cn1 [Example 132, 1-[2-({5-bromo-2-[(1-methyl-1H-pyrazol-4-yl)amino]pyrimidin-4-yl}amino)phenyl]cyclobutanol] | < 100 nM | < 100 nM | 100 to 1000 nM
CCn1cc(Nc2ncc(Cl)c(N[C@@H]3[C@H](C(N)=O)[C@@H]4C=C[C@H]3C4)n2)cn1.CCn1cc(Nc2ncc(Cl)c(N[C@H]3[C@@H](C(N)=O)[C@H]4C=C[C@@H]3C4)n2)cn1 (mixture of isomers) [Example 121, (1S,2R,3S,4R)-3-({5-chloro-2-[(1-ethyl-1H-pyrazol-4-yl)amino]pyrimidin-4-yl}amino)bicyclo[2.2.1]hept-5-ene-2-carboxamide and (1R,2S,3R,4S)-3-({5-chloro-2-[(1-ethyl-1H-pyrazol-4-yl)amino]pyrimidin-4-yl}amino)bicyclo[2.2.1]hept-5-ene-2-carboxamide] | < 100 nM | < 100 nM | 100 to 1000 nM
CC(C)NC(=O)C1CCCC1Nc1nc(Nc2cnn(C3CCNCC3)c2)ncc1Cl (racemic) [Example 163, (1S,2R)-2-[(5-chloro-2-{[1-(piperidin-4-yl)-1H-pyrazol-4-yl]amino}pyrimidin-4-yl)amino]-N-isopropylcyclopentanecarboxamide and (1R,2S)-2-[(5-chloro-2-{[1-(piperidin-4-yl)-1H-pyrazol-4-yl]amino}pyrimidin-4-yl)amino]-N-isopropylcyclopentanecarboxamide] | < 100 nM | 100 to 1000 nM | 100 to 1000 nM
NC(=O)[C@@H]1[C@H](Nc2nc(Nc3cnn(-c4ccccc4)c3)ncc2Cl)[C@H]2C=C[C@@H]1C2 [Example 174, (1S,2S,3R,4R)-3-({5-chloro-2-[(1-phenyl-1H-pyrazol-4-yl)amino]pyrimidin-4-yl}amino)bicyclo[2.2.1]hept-5-ene-2-carboxamide] | < 100 nM | < 100 nM | < 100 nM
NC(=O)[C@@H]1[C@H](Nc2nc(Nc3cnn([C@@H]4CCOC4)c3)ncc2Br)[C@H]2C=C[C@@H]1C2 [Example 116, (1S,2S,3R,4R)-3-{[5-bromo-2-({1-[(3R)-tetrahydrofuran-3-yl]-1H-pyrazol-4-yl}amino)pyrimidin-4-yl]amino}bicyclo[2.2.1]hept-5-ene-2-carboxamide] | < 100 nM | < 100 nM | < 100 nM
Cn1cc(Nc2ncc(C(F)(F)F)c(N[C@@H]3[C@H](C(N)=O)[C@H]4C=C[C@@H]3C4)n2)cn1.Cn1cc(Nc2ncc(C(F)(F)F)c(N[C@H]3[C@@H](C(N)=O)[C@@H]4C=C[C@H]3C4)n2)cn1 (mixture of isomers) [Example 10, (1S,2S,3R,4R)-3-{[2-[(1-methyl-1H-pyrazol-4-yl)amino]-5-(trifluoromethyl)pyrimidin-4-yl]amino}bicyclo[2.2.1]hept-5-ene-2-carboxamide and (1R,2R,3S,4S)-3-{[2-[(1-methyl-1H-pyrazol-4-yl)amino]-5-(trifluoromethyl)pyrimidin-4-yl]amino}bicyclo[2.2.1]hept-5-ene-2-carboxamide] | < 100 nM | < 100 nM | < 100 nM
